Laboratory results published in ChEMBL document CHEMBL5325488, “Discovery of SMD-3040 as a Potent and Selective SMARCA2 PROTAC Degrader with Strong in vivo Antitumor Activity” (J Med Chem, 2023).

Assays:
[1] = target: von Hippel-Lindau disease tumor suppressor/SWI/SNF-related matrix-associated actin-dependent regulator of chromatin subfamily A member 4 (Homo sapiens, UniProt P51532+P40337); experiment: In vivo PROTAC activity at VHL/SMARCA4 in SCID mouse xenografted with human MV4-11 cells assessed as reduction of SMARCA4 level in tumor at 50 mg/kg, iv administered as single dose measured after 72 hrs by Western blotting analysis; format: ADME, organism-based; parameters: scale not given: the % may be the effect or the level left
von Hippel-Lindau disease tumor suppressor/SWI/SNF-related matrix-associated actin-dependent regulator of chromatin subfamily A member 4, sequence (P51532 whole entry): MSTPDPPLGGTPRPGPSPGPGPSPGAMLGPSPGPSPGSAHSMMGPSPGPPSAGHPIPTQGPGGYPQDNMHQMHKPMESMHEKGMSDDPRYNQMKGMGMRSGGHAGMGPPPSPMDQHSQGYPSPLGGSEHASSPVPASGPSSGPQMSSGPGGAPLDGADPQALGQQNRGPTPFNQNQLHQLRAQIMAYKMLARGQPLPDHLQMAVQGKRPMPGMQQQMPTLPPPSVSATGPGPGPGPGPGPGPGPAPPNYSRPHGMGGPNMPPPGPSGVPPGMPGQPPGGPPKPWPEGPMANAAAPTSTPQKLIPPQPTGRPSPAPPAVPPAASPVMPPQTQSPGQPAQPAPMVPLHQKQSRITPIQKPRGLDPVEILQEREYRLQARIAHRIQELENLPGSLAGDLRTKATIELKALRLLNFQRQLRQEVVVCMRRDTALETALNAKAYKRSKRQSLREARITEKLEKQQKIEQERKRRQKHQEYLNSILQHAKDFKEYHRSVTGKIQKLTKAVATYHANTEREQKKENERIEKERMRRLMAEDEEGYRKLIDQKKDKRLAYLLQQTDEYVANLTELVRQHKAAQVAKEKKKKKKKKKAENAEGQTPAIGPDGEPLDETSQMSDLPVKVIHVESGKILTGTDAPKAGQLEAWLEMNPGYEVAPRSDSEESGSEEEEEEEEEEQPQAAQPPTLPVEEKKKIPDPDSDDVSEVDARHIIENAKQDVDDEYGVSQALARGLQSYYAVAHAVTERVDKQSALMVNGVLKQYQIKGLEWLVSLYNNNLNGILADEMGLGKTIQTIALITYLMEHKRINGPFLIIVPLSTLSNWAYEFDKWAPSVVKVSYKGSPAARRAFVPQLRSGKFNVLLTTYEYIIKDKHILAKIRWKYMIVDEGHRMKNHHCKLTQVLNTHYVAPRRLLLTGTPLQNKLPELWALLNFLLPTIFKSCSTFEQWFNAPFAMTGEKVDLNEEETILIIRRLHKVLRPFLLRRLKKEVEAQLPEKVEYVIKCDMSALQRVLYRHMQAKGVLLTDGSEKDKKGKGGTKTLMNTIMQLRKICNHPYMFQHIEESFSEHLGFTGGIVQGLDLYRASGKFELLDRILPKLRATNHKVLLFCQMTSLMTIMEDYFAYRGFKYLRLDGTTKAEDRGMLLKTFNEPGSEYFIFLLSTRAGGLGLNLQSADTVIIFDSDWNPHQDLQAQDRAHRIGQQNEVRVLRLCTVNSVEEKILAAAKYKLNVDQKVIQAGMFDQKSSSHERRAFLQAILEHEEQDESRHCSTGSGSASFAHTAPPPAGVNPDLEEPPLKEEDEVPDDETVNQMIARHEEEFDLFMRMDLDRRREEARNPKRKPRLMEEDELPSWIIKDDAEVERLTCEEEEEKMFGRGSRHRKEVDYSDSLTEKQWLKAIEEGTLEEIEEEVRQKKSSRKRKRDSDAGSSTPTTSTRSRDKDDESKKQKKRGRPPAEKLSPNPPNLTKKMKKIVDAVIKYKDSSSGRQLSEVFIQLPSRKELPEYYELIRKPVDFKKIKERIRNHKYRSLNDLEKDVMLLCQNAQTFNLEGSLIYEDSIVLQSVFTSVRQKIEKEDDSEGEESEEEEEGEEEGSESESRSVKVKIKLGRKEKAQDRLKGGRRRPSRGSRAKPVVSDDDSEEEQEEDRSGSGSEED
von Hippel-Lindau disease tumor suppressor/SWI/SNF-related matrix-associated actin-dependent regulator of chromatin subfamily A member 4, sequence (P40337 whole entry): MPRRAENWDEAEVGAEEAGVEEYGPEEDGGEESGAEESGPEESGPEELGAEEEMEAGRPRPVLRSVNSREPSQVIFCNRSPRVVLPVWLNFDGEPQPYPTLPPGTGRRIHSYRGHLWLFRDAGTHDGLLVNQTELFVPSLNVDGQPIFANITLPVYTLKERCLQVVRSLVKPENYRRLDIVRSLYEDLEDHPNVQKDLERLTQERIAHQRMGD

[2] = target: T1, von Hippel-Lindau disease tumor suppressor/SWI/SNF-related matrix-associated actin-dependent regulator of chromatin subfamily A member 2 (Homo sapiens, UniProt P51531+P40337); experiment: In vivo PROTAC activity at VHL/SMARCA2 in SCID mouse xenografted with human MV4-11 cells assessed as reduction of SMARCA2 level in tumor at 50 mg/kg, iv administered as single dose measured after 24 hrs by Western blotting analysis; format: ADME, organism-based; parameters: scale not given: the % may be the effect or the level left
Target sequence in this assay (P51531 whole entry): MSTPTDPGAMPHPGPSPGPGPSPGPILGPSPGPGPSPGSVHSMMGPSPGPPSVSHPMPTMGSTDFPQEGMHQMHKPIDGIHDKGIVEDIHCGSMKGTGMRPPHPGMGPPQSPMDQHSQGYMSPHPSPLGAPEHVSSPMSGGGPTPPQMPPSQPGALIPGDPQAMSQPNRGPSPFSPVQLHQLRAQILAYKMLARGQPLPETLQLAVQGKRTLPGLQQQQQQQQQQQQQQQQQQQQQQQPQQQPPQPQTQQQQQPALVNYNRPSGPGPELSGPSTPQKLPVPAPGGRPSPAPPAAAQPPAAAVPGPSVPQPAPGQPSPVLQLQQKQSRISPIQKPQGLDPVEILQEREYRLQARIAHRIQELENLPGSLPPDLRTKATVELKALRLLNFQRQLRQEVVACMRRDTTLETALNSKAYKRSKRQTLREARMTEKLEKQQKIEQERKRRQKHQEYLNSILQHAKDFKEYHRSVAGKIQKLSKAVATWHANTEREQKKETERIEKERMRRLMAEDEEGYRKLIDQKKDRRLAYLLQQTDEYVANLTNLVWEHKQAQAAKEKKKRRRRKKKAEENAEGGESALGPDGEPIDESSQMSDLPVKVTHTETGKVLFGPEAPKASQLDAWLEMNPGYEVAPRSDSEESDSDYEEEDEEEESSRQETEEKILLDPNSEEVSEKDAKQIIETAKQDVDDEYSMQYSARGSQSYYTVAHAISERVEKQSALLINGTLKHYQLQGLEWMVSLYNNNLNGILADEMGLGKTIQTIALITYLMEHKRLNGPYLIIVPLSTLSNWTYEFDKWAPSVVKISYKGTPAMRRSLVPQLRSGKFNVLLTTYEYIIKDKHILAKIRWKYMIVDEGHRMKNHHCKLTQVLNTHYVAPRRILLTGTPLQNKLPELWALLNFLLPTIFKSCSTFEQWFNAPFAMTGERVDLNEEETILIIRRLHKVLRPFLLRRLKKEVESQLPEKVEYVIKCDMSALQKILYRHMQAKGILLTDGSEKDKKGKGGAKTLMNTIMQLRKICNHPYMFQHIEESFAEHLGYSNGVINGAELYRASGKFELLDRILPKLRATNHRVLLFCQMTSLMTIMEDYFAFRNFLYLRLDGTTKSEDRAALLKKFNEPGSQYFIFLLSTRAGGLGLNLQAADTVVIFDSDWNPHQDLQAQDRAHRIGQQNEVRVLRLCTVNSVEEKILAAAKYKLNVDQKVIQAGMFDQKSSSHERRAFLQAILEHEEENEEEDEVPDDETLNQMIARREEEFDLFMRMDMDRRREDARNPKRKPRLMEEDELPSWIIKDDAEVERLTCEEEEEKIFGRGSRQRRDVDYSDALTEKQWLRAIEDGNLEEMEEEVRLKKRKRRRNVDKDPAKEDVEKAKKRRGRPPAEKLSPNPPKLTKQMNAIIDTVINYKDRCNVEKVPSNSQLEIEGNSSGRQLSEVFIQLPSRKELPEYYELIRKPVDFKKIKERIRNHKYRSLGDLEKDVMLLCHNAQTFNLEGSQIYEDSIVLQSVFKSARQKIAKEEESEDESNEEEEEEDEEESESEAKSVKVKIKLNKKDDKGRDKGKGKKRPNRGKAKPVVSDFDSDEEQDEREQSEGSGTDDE
Target sequence in this assay (P40337 whole entry): as the sequence (P40337 whole entry) above

[3] = target: T1, von Hippel-Lindau disease tumor suppressor/SWI/SNF-related matrix-associated actin-dependent regulator of chromatin subfamily A member 2; experiment: In vivo PROTAC activity at VHL/SMARCA2 in SCID mouse xenografted with human MV4-11 cells assessed as remaining activity in tumor at 50 mg/kg, iv administered as single dose measured after 24 hrs by Western blotting analysis (reference value: 100 +/- 15 % ); format: ADME, organism-based
Target sequence in this assay (P51531 whole entry): as the sequence (P51531 whole entry) above
Target sequence in this assay (P40337 whole entry): as the sequence (P40337 whole entry) above

[4] = target: T1, von Hippel-Lindau disease tumor suppressor/SWI/SNF-related matrix-associated actin-dependent regulator of chromatin subfamily A member 2; experiment: PROTAC activity at VHL/C-terminal HiBiT fused SMARCA2 in human HeLa cells assessed as induction of SMARCA2 degradation incubated for 1 to 48 hrs by Nano-Glo HiBiT analysis; format: cell-based; settings: dose 0.001-10 µM, time 1-48 hrs
Target sequence in this assay (P40337 whole entry, looked up): as the sequence (P40337 whole entry) above
Target sequence in this assay (P51531 whole entry, looked up): as the sequence (P51531 whole entry) above

[5] = target: T1, von Hippel-Lindau disease tumor suppressor/SWI/SNF-related matrix-associated actin-dependent regulator of chromatin subfamily A member 2; experiment: In vivo PROTAC activity at VHL/SMARCA2 in SCID mouse xenografted with human MV4-11 cells assessed as remaining activity in tumor at 50 mg/kg, iv administered as single dose measured after 48 hrs by Western blotting analysis (reference value: 100 +/- 15 % ); format: ADME, organism-based
Target sequence in this assay (P51531 whole entry): as above
Target sequence in this assay (P40337 whole entry): as the sequence (P40337 whole entry) above

[6] = Antiproliferative activity against SMARCA4-deficient human NCI-H1568 cells assessed as cell growth inhibition measured after 7 days by WST-8 assay; format: functional; settings: NCI-H1568, 168 h, time 7 day

Activity [1]: 9%
Activity [2]: 86%
Activity [3]: 14%
Activity [4]: Dose-Dependent Effect
Activity [5]: 17%
Compound: Cc1ncsc1-c1ccc([C@H](C)NC(=O)[C@@H]2C[C@@H](O)CN2C(=O)[C@@H](NC(=O)[C@H]2CC[C@H](CN3CC4(CCC(n5cc(-c6cc(-c7ccccc7O)nnc6N)cn5)CC4)C3)CC2)C(C)(C)C)cc1
GI50 [6]: 8.8 nM
